Measurements reported in US20090221607A1, “Piperazine Derivatives” (M's Science Corporation, priority 2006, published 2009).
Counter-ions that a name gives are not always drawn.

Target: T1, σ1 receptors (Homo sapiens, UniProt Q99720)
T1 construct: endogenous in cells; host or cells: HEK-293 cell membranes
Test: σ1 receptor binding assay ((+)-[3H]pentazocine displacement, HEK-293 cell membranes)
Settings: 10 nM (+)-[3H]-pentazocine, 120 min at 37° C.
Description: Sigma-1 (σ1) and sigma-2 (σ2) receptor binding assays are carried out in membranes from HEK-293 (Human Embryonic Kidney) cells.
Confluent HEK-293 cells are harvested in PBS/5 mM EDTA. They are centrifuged at 2000 rpm for 5 min and then washed two times in PBS. Cells are homogenized in 20 mM Tris-HCL (pH=7.5) containing 5 mM EDTA, 0.5 mM PMSF and 0.5 μg/mL leupeptin using a Dounce homogenizer and sonicated for 5 minutes.
Nuclear debris and intact cells are removed by centrifugation at 3000 rpm for 10 minutes at 4° C. The supernatant is centrifuged at 12000 rpm for 30 minutes and the resulting pellet is resuspended in 25 mM Tris-HCL (pH=7.5), 25 mM Mg2Cl, 10% sucrose containing 0.5 mM PMSF, 2 mM AEBSF, 1 mM EDTA, 130 μM bestatin, 14 μM E-64, 1 μM leupeptin and […] aprotinin.
Proteins are determined using the Bio Rad Protein Assay Dye Reagent and the membranes are aliquoted and frozen at −80° C. […]
Total binding is determined by incubating 50 μg of HEK-293 cell membranes with 10 nM (+)-[^3H]-pentazocine (Perkin-Elmer, 35 Ci/mmol) and assay buffer (50 mM Tris-HCl, pH=8.3) in a total volume of 200 μl. Non specific binding is determined in the presence of 10 μM unlabeled pentazocine. […] The filters are washed three times and the membrane-bound radioactivity is determined in a Microbeta scintillation counter. […]
Specific binding is determined by subtraction of non specific binding from total binding. […]

T1 sequence (Q99720 whole entry): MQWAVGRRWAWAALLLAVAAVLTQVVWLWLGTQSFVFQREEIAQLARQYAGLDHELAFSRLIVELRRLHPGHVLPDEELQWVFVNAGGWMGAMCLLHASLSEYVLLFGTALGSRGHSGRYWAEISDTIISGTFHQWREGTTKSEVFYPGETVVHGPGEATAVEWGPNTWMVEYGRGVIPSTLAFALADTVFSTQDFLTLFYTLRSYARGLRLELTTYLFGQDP

IC50 [nM]	Structure (SMILES)
< 700	Fc1ccc(OCCN2CCN(CCOc3ccc(F)cc3)CC2)cc1 [1,4-bis-[2-(4-fluorophenoxy)ethyl]piperazine]
< 700	Fc1ccccc1OCCN1CCN(CCOc2ccccc2F)CC1 [Example 1, 1,4-Bis-[2-(2-fluorophenoxy)ethyl]piperazine dihydrochloride]
